Assay results: patent US9492471B2, “Methods of treating a disease or disorder associated with Bruton'S Tyrosine Kinase” (Celgene Avilomics Research, Inc., priority 2013, dated 2016)
Like-named read-outs stand apart in the source and are kept apart here.

Key:
Experiment in all cases: HotSpot kinase profiling
Format in all cases: biochemical
CAMK2a = molecular target: T1, CAMK2a (Homo sapiens, UniProt Q9UQM7)
T1 construct: purchased Reaction Biology Corp
Outline: (§1)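 Activity is measured by radiolabel transfer captured on P81 filters after a 2 h room-temperature reaction of kinase, substrate and cofactors. Values are percent inhibition against DMSO.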

CAMKK1 = molecular target: T2, CAMKK1 (Homo sapiens, UniProt Q8N5S9)
T2 construct: purchased Reaction Biology Corp
Outline: as §1

CDK2/cyclin A1 = molecular target: T3, CDK2/cyclin A1 (Homo sapiens, UniProt P24941)
T3 construct: purchased Reaction Biology Corp
Outline: as §1

CDK6/cyclin D1 = molecular target: T4, CDK6/cyclin D1 (Homo sapiens, UniProt Q00534)
T4 construct: purchased Reaction Biology Corp
Outline: as §1

CLK4 = molecular target: T5, CLK4 (Homo sapiens, UniProt Q9HAZ1)
T5 construct: purchased Reaction Biology Corp
Outline: as §1

DYRK2 = molecular target: T6, DYRK2 (Homo sapiens, UniProt Q92630)
T6 construct: purchased Reaction Biology Corp
T6 sequence (Q92630 1-601): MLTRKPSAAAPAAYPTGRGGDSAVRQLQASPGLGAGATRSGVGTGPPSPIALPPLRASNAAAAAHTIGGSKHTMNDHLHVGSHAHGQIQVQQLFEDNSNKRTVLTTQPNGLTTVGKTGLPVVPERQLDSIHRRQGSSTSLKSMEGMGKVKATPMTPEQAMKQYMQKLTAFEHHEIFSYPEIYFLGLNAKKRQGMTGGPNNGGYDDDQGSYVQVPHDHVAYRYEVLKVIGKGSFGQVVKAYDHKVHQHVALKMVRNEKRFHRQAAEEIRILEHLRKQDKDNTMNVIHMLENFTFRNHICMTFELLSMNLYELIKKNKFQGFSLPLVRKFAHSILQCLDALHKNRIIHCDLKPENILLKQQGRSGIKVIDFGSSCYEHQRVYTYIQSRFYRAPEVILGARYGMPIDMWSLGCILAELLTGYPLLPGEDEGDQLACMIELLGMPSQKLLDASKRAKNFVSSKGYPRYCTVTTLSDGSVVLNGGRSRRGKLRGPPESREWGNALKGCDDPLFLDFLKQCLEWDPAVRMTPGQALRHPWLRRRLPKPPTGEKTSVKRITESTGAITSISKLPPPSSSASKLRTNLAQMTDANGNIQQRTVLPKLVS
Outline: as §1

GSK3a = molecular target: T7, GSK3a (Homo sapiens, UniProt P49840)
T7 construct: purchased Reaction Biology Corp
Outline: as §1

MARK2/PAR-1Ba = molecular target: T8, MARK2/PAR-1Ba (Homo sapiens, UniProt Q7KZI7)
T8 construct: purchased Reaction Biology Corp
Outline: as §1

MST4 = molecular target: T9, MST4 (Homo sapiens, UniProt Q9P289)
T9 construct: purchased Reaction Biology Corp
Outline: as §1

OSR1/OXSR1 = molecular target: T10, OSR1/OXSR1 (Homo sapiens, UniProt O95747)
T10 construct: purchased Reaction Biology Corp
Outline: as §1

PKCb2 = molecular target: T11, PKCb2 (Homo sapiens, UniProt P05771)
T11 construct: purchased Reaction Biology Corp
Outline: as §1

PKCd = molecular target: T12, PKCd (Homo sapiens, UniProt Q05655)
T12 construct: purchased Reaction Biology Corp
Outline: as §1

PKN2/PRK2 = molecular target: T13, PKN2/PRK2 (Homo sapiens, UniProt Q16513)
T13 construct: purchased Reaction Biology Corp
Outline: as §1

ULK3 = molecular target: T14, ULK3 (Homo sapiens, UniProt Q6PHR2)
T14 construct: purchased Reaction Biology Corp
T14 sequence (Q6PHR2 1-472): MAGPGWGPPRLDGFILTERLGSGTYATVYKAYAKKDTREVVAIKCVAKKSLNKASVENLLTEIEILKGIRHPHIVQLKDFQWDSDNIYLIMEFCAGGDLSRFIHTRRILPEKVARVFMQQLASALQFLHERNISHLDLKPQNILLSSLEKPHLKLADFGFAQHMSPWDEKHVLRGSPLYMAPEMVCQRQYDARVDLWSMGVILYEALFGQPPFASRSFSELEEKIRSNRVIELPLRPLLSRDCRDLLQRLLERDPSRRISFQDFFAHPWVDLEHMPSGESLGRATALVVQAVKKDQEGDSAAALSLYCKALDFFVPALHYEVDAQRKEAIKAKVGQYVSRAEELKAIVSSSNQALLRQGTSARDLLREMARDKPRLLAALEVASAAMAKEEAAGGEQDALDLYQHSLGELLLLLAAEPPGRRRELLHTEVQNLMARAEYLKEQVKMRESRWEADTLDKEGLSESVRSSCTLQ
Outline: as §1

[1] = read-out: % Enzyme Activity (relative to DMSO controls) Run 1
[2] = read-out: % Enzyme Activity (relative to DMSO controls) Run 2

T9 sequence (Q9P289 whole entry): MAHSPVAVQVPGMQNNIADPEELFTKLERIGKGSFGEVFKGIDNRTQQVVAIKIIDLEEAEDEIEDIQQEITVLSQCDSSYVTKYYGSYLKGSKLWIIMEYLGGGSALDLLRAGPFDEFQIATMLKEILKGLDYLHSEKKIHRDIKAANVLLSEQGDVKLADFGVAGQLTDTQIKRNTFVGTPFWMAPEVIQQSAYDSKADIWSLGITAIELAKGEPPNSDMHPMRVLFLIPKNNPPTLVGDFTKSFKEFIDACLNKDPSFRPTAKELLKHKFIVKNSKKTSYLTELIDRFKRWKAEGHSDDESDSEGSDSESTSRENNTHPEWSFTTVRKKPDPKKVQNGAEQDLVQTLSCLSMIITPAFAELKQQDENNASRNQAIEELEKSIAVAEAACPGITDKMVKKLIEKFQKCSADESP
T4 sequence (Q00534 whole entry): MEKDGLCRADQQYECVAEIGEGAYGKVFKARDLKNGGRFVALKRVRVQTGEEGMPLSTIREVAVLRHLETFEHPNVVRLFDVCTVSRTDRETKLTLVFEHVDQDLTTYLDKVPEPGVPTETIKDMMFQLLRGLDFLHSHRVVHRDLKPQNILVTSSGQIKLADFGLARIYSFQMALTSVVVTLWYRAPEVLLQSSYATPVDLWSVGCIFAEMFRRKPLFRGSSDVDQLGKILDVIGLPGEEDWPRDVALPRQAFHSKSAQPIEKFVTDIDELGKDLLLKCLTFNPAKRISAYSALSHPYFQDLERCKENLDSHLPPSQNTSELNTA
T4 sequence (P24385 whole entry partner): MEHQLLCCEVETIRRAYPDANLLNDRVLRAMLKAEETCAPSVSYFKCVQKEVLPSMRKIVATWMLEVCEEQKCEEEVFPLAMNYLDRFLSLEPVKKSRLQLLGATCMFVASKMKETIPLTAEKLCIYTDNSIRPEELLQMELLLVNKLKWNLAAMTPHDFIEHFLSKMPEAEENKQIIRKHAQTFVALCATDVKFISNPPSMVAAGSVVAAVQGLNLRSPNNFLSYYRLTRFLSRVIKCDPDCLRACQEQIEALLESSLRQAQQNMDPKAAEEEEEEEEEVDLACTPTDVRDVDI
T7 sequence (P49840 whole entry): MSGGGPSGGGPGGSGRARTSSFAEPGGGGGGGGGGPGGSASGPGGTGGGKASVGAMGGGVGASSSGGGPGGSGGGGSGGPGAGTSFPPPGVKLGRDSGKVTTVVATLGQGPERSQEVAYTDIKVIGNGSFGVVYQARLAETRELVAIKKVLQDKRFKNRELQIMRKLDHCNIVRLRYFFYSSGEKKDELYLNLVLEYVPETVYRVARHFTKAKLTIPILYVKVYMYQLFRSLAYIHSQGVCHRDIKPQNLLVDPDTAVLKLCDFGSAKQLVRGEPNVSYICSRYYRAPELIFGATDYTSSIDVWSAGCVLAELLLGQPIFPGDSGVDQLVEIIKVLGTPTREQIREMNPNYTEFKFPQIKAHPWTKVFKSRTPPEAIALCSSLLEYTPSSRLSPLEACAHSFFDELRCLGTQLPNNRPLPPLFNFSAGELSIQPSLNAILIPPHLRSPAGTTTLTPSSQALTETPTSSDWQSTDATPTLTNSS
T10 sequence (O95747 whole entry): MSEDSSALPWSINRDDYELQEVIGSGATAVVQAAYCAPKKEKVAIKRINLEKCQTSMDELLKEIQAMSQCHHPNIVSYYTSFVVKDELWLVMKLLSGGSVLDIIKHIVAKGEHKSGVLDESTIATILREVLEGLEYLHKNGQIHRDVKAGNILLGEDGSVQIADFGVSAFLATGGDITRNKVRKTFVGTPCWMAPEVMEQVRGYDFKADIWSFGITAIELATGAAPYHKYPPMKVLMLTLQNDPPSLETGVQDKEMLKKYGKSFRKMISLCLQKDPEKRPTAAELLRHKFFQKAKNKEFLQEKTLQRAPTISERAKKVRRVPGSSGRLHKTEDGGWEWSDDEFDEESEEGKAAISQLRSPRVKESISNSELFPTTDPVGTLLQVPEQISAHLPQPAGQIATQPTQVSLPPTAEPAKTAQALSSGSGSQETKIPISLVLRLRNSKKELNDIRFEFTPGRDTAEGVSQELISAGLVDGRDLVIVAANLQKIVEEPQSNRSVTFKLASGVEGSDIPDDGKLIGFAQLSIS
T1 sequence (Q9UQM7 whole entry): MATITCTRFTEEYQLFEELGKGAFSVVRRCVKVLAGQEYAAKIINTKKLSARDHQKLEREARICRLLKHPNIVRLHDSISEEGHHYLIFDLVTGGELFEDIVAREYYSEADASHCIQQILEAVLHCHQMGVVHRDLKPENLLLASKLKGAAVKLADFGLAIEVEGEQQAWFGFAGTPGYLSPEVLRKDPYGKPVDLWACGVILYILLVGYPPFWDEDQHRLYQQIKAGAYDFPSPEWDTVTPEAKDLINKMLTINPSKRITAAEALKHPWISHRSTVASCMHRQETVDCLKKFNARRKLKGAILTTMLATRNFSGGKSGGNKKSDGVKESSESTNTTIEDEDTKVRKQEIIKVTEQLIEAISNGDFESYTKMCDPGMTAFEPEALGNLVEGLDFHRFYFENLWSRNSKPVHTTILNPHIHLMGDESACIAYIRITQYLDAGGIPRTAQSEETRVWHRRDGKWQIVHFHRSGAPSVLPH
T13 sequence (Q16513 whole entry): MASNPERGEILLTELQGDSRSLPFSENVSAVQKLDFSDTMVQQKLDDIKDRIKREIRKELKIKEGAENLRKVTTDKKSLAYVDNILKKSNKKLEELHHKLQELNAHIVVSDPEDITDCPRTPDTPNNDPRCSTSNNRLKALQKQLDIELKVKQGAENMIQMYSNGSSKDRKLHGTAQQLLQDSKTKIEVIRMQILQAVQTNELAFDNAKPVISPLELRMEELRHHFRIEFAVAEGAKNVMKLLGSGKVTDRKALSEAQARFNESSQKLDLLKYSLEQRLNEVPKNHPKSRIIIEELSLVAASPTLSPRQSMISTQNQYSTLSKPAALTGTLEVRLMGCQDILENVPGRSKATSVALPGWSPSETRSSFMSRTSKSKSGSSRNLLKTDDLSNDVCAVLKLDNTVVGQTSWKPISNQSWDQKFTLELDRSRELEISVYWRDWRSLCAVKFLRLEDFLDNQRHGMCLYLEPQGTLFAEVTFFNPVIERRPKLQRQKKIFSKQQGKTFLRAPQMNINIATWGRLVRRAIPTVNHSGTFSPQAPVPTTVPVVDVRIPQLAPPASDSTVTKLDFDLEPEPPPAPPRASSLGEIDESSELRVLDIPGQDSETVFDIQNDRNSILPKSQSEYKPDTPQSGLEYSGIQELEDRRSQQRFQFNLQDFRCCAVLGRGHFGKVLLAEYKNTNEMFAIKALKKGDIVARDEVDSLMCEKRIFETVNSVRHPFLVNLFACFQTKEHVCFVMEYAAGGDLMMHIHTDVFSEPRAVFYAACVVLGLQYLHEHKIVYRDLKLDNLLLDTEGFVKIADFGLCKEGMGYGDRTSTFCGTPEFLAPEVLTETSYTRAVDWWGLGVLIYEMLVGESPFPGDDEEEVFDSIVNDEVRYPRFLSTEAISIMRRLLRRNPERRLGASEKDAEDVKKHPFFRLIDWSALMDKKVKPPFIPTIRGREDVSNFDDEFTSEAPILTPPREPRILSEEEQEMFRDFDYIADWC
T8 sequence (Q7KZI7 1-725 isoform Q7KZI7-4): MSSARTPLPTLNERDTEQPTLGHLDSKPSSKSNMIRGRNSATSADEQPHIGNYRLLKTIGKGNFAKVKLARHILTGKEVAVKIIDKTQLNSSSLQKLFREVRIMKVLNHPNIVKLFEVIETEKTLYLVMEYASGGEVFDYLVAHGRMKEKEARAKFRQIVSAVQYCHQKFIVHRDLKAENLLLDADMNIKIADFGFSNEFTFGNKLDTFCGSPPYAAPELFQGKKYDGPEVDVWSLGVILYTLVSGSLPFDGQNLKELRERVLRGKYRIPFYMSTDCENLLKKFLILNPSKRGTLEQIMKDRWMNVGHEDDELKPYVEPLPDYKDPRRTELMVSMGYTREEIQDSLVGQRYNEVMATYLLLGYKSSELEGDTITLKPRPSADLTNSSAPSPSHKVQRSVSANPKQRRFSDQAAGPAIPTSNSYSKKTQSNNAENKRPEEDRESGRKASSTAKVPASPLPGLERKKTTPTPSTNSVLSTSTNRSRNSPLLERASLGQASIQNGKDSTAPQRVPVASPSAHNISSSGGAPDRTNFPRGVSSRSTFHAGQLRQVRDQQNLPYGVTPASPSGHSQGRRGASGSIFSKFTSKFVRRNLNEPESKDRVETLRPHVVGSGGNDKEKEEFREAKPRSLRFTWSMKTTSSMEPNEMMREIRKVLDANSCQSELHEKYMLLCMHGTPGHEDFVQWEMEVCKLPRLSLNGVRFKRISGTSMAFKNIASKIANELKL
T12 sequence (Q05655 whole entry): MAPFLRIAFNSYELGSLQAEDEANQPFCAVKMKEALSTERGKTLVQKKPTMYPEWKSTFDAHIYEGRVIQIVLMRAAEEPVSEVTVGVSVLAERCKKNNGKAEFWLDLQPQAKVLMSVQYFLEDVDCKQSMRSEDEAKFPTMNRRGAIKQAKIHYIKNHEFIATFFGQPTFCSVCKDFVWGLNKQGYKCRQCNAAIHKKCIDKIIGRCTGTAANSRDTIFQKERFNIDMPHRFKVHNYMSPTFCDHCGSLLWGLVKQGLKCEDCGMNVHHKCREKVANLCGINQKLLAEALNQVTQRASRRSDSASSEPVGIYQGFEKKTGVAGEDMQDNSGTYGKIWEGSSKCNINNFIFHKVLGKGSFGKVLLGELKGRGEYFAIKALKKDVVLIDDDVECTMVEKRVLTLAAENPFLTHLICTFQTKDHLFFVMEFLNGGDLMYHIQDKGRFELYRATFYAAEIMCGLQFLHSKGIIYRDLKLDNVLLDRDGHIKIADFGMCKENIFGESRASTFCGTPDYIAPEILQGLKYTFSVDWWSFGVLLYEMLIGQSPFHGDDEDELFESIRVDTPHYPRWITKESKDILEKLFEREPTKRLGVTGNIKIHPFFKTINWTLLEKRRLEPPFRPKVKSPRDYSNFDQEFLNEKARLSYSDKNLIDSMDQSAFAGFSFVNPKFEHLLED

## C=CC(=O)Nc1cccc(Nc2nc(Nc3ccc(OCCOC)c(F)c3)ncc2F)c1 [Compound 2]
CAMK2a
  inhibition at 3 µM: -9.6%
CAMK2a; [1]
  remaining activity at 3 µM: 109%
CAMK2a; [2]
  remaining activity at 3 µM: 110%
CAMKK1
  inhibition at 3 µM: 9.31%
CAMKK1; [1]
  remaining activity at 3 µM: 93.5%
CAMKK1; [2]
  remaining activity at 3 µM: 87.9%
CDK2/cyclin A1
  inhibition at 3 µM: 22%
CDK2/cyclin A1; [1]
  remaining activity at 3 µM: 78.2%
CDK2/cyclin A1; [2]
  remaining activity at 3 µM: 77.7%
CDK6/cyclin D1
  inhibition at 3 µM: -0.92%
CDK6/cyclin D1; [1]
  remaining activity at 3 µM: 101%
CDK6/cyclin D1; [2]
  remaining activity at 3 µM: 100%
CLK4
  inhibition at 3 µM: 44.3%
CLK4; [1]
  remaining activity at 3 µM: 57.4%
CLK4; [2]
  remaining activity at 3 µM: 53.9%
DYRK2
  inhibition at 3 µM: 38.5%
DYRK2; [1]
  remaining activity at 3 µM: 61%
DYRK2; [2]
  remaining activity at 3 µM: 62.1%
GSK3a
  inhibition at 3 µM: 24.5%
GSK3a; [1]
  remaining activity at 3 µM: 76%
GSK3a; [2]
  remaining activity at 3 µM: 75%
MARK2/PAR-1Ba
  inhibition at 3 µM: 1.3%
MARK2/PAR-1Ba; [1]
  remaining activity at 3 µM: 99.6%
MARK2/PAR-1Ba; [2]
  remaining activity at 3 µM: 97.8%
MST4
  inhibition at 3 µM: -1.09%
MST4; [1]
  remaining activity at 3 µM: 97.8%
MST4; [2]
  remaining activity at 3 µM: 104%
OSR1/OXSR1
  inhibition at 3 µM: -19.2%
OSR1/OXSR1; [1]
  remaining activity at 3 µM: 117%
OSR1/OXSR1; [2]
  remaining activity at 3 µM: 122%
PKCb2
  inhibition at 3 µM: 50.5%
PKCb2; [1]
  remaining activity at 3 µM: 50.1%
PKCb2; [2]
  remaining activity at 3 µM: 48.9%
PKCd
  inhibition at 3 µM: 1.78%
PKCd; [1]
  remaining activity at 3 µM: 100%
PKCd; [2]
  remaining activity at 3 µM: 96%
PKN2/PRK2
  inhibition at 3 µM: 7.64%
PKN2/PRK2; [1]
  remaining activity at 3 µM: 93.3%
PKN2/PRK2; [2]
  remaining activity at 3 µM: 91.4%
ULK3
  inhibition at 3 µM: 21.7%
ULK3; [1]
  remaining activity at 3 µM: 79.6%
ULK3; [2]
  remaining activity at 3 µM: 77%
